Experimental data as given in PubChem BioAssay (NCI).
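In this assay, cells in 96-well plates receive the compound at five concentrations for 48 hours. Endpoints are linearly interpolated between the surrounding concentrations. TGI is the concentration that stops growth completely.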

Assays:
Test in all cases: NCI tumour cell line growth inhibition, 48 h
EKVX NSCLC = test system: EKVX NSCLC
LOX IMVI melanoma = test system: LOX IMVI melanoma
CCRF-CEM leukemia = test system: CCRF-CEM leukemia
NCI/ADR-RES ovarian = test system: NCI/ADR-RES ovarian
IGROV1 ovarian = test system: IGROV1 ovarian
UACC-62 melanoma = test system: UACC-62 melanoma
HOP-92 NSCLC = test system: HOP-92 NSCLC
MOLT-4 leukemia = test system: MOLT-4 leukemia
U251 CNS = test system: U251 CNS
NCI-H226 lung = test system: NCI-H226 lung
SF-539 CNS = test system: SF-539 CNS
A549 NSCLC = test system: A549 NSCLC
HCC-2998 colon = test system: HCC-2998 colon
DMS 114 small cell lung = test system: DMS 114 small cell lung
M19-MEL melanoma = test system: M19-MEL melanoma
OVCAR-3 ovarian = test system: OVCAR-3 ovarian
K-562 leukemia = test system: K-562 leukemia
DLD-1 colon = test system: DLD-1 colon
SK-MEL-2 melanoma = test system: SK-MEL-2 melanoma
OVCAR-8 ovarian = test system: OVCAR-8 ovarian
UACC-257 melanoma = test system: UACC-257 melanoma
SNB-78 CNS = test system: SNB-78 CNS
UO-31 renal = test system: UO-31 renal
SK-MEL-28 melanoma = test system: SK-MEL-28 melanoma
A498 renal = test system: A498 renal
NCI-H23 lung = test system: NCI-H23 lung
CAKI-1 renal = test system: CAKI-1 renal
P388 leukemia = test system: P388 leukemia
SN12K1 renal = test system: SN12K1 renal
NCI-H460 lung = test system: NCI-H460 lung
NCI-H522 lung = test system: NCI-H522 lung
MCF7 breast = test system: MCF7 breast
OVCAR-4 ovarian = test system: OVCAR-4 ovarian
SF-268 CNS = test system: SF-268 CNS
SK-OV-3 ovarian = test system: SK-OV-3 ovarian
HCT-15 colon = test system: HCT-15 colon
SNB-75 CNS = test system: SNB-75 CNS
KM12 colon = test system: KM12 colon
MALME-3M melanoma = test system: MALME-3M melanoma
DMS 273 small cell lung = test system: DMS 273 small cell lung
RXF 393 renal = test system: RXF 393 renal
HOP-62 NSCLC = test system: HOP-62 NSCLC
COLO 205 colon = test system: COLO 205 colon
HT29 colon = test system: HT29 colon
HCT-116 colon = test system: HCT-116 colon
P388/ADR leukemia = test system: P388/ADR leukemia
HL-60(TB) leukemia = test system: HL-60(TB) leukemia
SNB-19 CNS = test system: SNB-19 CNS
SN12C renal = test system: SN12C renal
SW-620 colon = test system: SW-620 colon
SK-MEL-5 melanoma = test system: SK-MEL-5 melanoma
SF-295 CNS = test system: SF-295 CNS
HOP-18 NSCLC = test system: HOP-18 NSCLC

CN(c1ccccc1)c1c(-c2ccccc2)c(=O)oc2c1ccc1occc12
TGI (EKVX NSCLC): > 100 µM | TGI (LOX IMVI melanoma): > 100 µM | TGI (CCRF-CEM leukemia): > 100 µM | TGI (NCI/ADR-RES ovarian): > 100 µM | TGI (IGROV1 ovarian): > 100 µM | TGI (UACC-62 melanoma): > 100 µM | TGI (HOP-92 NSCLC): > 95.6 µM | TGI (MOLT-4 leukemia): > 100 µM | TGI (U251 CNS): > 100 µM | TGI (NCI-H226 lung): 2.85 µM | TGI (SF-539 CNS): > 100 µM | TGI (A549 NSCLC): > 100 µM | TGI (HCC-2998 colon): > 100 µM | TGI (DMS 114 small cell lung): > 100 µM | TGI (M19-MEL melanoma): > 100 µM | TGI (OVCAR-3 ovarian): > 100 µM | TGI (K-562 leukemia): > 100 µM | TGI (DLD-1 colon): > 100 µM | TGI (SK-MEL-2 melanoma): > 100 µM | TGI (OVCAR-8 ovarian): > 100 µM | TGI (UACC-257 melanoma): > 100 µM | TGI (SNB-78 CNS): > 100 µM | TGI (UO-31 renal): > 100 µM | TGI (SK-MEL-28 melanoma): > 100 µM | TGI (A498 renal): > 100 µM | TGI (NCI-H23 lung): > 100 µM | TGI (CAKI-1 renal): > 100 µM | TGI (P388 leukemia): > 100 µM | TGI (SN12K1 renal): > 100 µM | TGI (NCI-H460 lung): > 100 µM | TGI (NCI-H522 lung): > 100 µM | TGI (MCF7 breast): > 100 µM | TGI (OVCAR-4 ovarian): > 100 µM | TGI (SF-268 CNS): > 100 µM | TGI (SK-OV-3 ovarian): > 100 µM | TGI (HCT-15 colon): > 100 µM | TGI (SNB-75 CNS): > 100 µM | TGI (KM12 colon): > 100 µM | TGI (MALME-3M melanoma): > 100 µM | TGI (DMS 273 small cell lung): > 100 µM | TGI (RXF 393 renal): > 100 µM | TGI (HOP-62 NSCLC): > 100 µM | TGI (COLO 205 colon): > 100 µM | TGI (HT29 colon): > 100 µM | TGI (HCT-116 colon): > 100 µM | TGI (P388/ADR leukemia): > 100 µM | TGI (HL-60(TB) leukemia): > 100 µM | TGI (SNB-19 CNS): > 100 µM | TGI (SN12C renal): > 100 µM | TGI (SW-620 colon): > 100 µM | TGI (SK-MEL-5 melanoma): > 100 µM | TGI (SF-295 CNS): > 100 µM | TGI (HOP-18 NSCLC): > 100 µM
